From the NIST ThermoML archive (doi:10.1021/je060139a)
± gives the expanded uncertainty stated by the source.

Test: refractive index (Na D-line) (dimensionless); xn = mol fraction of the nth substance listed
Details: 100.5 kPa, Liquid, Standard Abbe refractometry

CC(=O)OCc1ccccc1 [benzyl ethanoate] + CCO
refractive index
Details	288.15 K	298.18 K	308.15 K	318.15 K
x1 = 0.05	1.38022 ± 0.00031	1.37602 ± 0.00031	1.37164 ± 0.00031	1.36738 ± 0.00031
x1 = 0.1	1.39462 ± 0.00031	1.39033 ± 0.00032	1.38588 ± 0.00032	1.38161 ± 0.00032
x1 = 0.15	1.40725 ± 0.00032	1.40288 ± 0.00032	1.39843 ± 0.00032	1.39409 ± 0.00032
x1 = 0.2	1.41836 ± 0.00032	1.41395 ± 0.00032	1.40945 ± 0.00032	1.40506 ± 0.00032
x1 = 0.25	1.42813 ± 0.00032	1.42372 ± 0.00032	1.41929 ± 0.00032	1.41487 ± 0.00032
x1 = 0.3	1.43696 ± 0.00032	1.43255 ± 0.00032	1.4281 ± 0.00032	1.42364 ± 0.00032
x1 = 0.35	1.44489 ± 0.00032	1.44048 ± 0.00032	1.43604 ± 0.00032	1.43155 ± 0.00032
x1 = 0.4	1.45211 ± 0.00032	1.44767 ± 0.00032	1.44323 ± 0.00032	1.4387 ± 0.00032
x1 = 0.45	1.45868 ± 0.00032	1.4542 ± 0.00032	1.44974 ± 0.00032	1.44517 ± 0.00032
x1 = 0.5	1.4647 ± 0.00032	1.46016 ± 0.00032	1.45571 ± 0.00032	1.4511 ± 0.00032
x1 = 0.55	1.4702 ± 0.00032	1.46565 ± 0.00032	1.46119 ± 0.00032	1.45653 ± 0.00032
x1 = 0.6	1.47521 ± 0.00032	1.47065 ± 0.00032	1.46619 ± 0.00032	1.46154 ± 0.00032
x1 = 0.65	1.47987 ± 0.00032	1.47531 ± 0.00032	1.47082 ± 0.00032	1.46613 ± 0.00032
x1 = 0.7	1.48418 ± 0.00032	1.47958 ± 0.00032	1.47508 ± 0.00032	1.47036 ± 0.00032
x1 = 0.75	1.48819 ± 0.00032	1.48358 ± 0.00032	1.47907 ± 0.00032	1.47434 ± 0.00032
x1 = 0.8	1.49191 ± 0.00032	1.48729 ± 0.00032	1.48279 ± 0.00032	1.47804 ± 0.00032
x1 = 0.85	1.49539 ± 0.00032	1.49076 ± 0.00032	1.48626 ± 0.00032	1.48148 ± 0.00032
x1 = 0.9	1.49871 ± 0.00032	1.49408 ± 0.00032	1.48959 ± 0.00032	1.48481 ± 0.00032
x1 = 0.95	1.5017 ± 0.00032	1.49709 ± 0.00032	1.49262 ± 0.00032	1.48783 ± 0.00032
x1 = 1	1.50439 ± 0.00032	1.49982 ± 0.00032	1.49539 ± 0.00032	1.49064 ± 0.00032
